Measured values reported in PMC10999543, “Identification of kinase modulators as host-directed therapeutics against intracellular methicillin-resistant Staphylococcus aureus” (Frontiers in Cellular and Infection Microbiology, 2024).
Read-outs that look alike come from different tables or passages of the source.

What was measured:
intracellular MRSA = format: cell-based, Staphylococcus aureus; conditions: for %GFP+ rep 1 / z-scoreMRSA+ rep 1: replicate 1; for %GFP+ rep 2 / z-scoreMRSA+ rep 2: replicate 2; for %GFP+ rep 3 / z-scoreMRSA+ rep 3: replicate 3; for z-scoreMRSA+ mean: mean of 3 replicates
In short: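 HeLa cells were infected with GFP-expressing MRSA (mean MOI 6.8) for 1 h, treated with 30 µg/ml gentamicin for 15 min, then incubated overnight at 37°C with kinase inhibitors and 5 µg/ml gentamicin. Flow cytometry gave % GFP-positive cells, with cell count as viability. Hits were z-score ≤ -2 (infection) and ≥ -3 (count) versus DMSO.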

HeLa cells = assay: Compound screen by flow cytometry: HeLa cell count as surrogate readout of cell viability (z-scoreHeLa); format: cell-based, human; conditions: for cell count rep 1 / z-scoreHeLa rep 1: replicate 1; for cell count rep 2 / z-scoreHeLa rep 2: replicate 2; for cell count rep 3 / z-scoreHeLa rep 3: replicate 3; for z-scoreHeLa mean: mean of 3 replicates
In short: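 The viability surrogate was the count of fixed HeLa cells by flow cytometry, converted to z-scores against DMSO controls with values deviating two-fold excluded. Before counting, cells had been infected with MRSA for 1 h and cleared of extracellular bacteria with gentamicin. They were then exposed overnight to kinase inhibitors in triplicate.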

[1] = PKIS compounds raw data, MRSA-infected HeLa cells
[2] = Yes/No: effect without cell death
[3] = compound screen, MRSA-infected HeLa cells
[4] = PKIS compounds raw data, HeLa cell count
[5] = compound screen, HeLa cell count
[6] = PKIS compound screen raw data, MRSA-infected HeLa cells
[7] = PKIS compound screen raw data, HeLa cell count
[8] = PKIS compound screen, MRSA-infected HeLa cells
[9] = PKIS compound screen, Yes/No call
[10] = PKIS compound screen, Yes/No call (effect without cell death)
[11] = PKIS compound screen, Yes/No call on z-scoreMRSA+
[12] = PKIS compound screen, HeLa cell count
[13] = PKIS compound screen, Yes/No call on z-scoreHeLa

Fc1cccc(COc2ccc(Nc3ncnc4cc(-c5ccc[nH]5)sc34)cc2Cl)c1 [GW693881A]
%GFP+ rep 1 (intracellular MRSA; [1]): 15.5% | %GFP+ rep 2 (intracellular MRSA; [1]): 14.8% | %GFP+ rep 3 (intracellular MRSA; [1]): 13.6% | effect (intracellular MRSA; Yes/No call from z-scoreMRSA+): No | hit (intracellular MRSA; [2]): No | z-scoreMRSA+ mean (intracellular MRSA; [3]): 0.17 | z-scoreMRSA+ rep 1 (intracellular MRSA; [3]): 0.75 | z-scoreMRSA+ rep 2 (intracellular MRSA; [3]): 0.44 | z-scoreMRSA+ rep 3 (intracellular MRSA; [3]): -0.68 | cell count rep 1 (HeLa cells; [4]): 5481 | cell count rep 2 (HeLa cells; [4]): 4577 | cell count rep 3 (HeLa cells; [4]): 7047 | cell death (HeLa cells; Yes/No call from z-scoreHeLa): No | z-scoreHeLa mean (HeLa cells; [5]): 0.30 | z-scoreHeLa rep 1 (HeLa cells; [5]): 0.64 | z-scoreHeLa rep 2 (HeLa cells; [5]): 0.23 | z-scoreHeLa rep 3 (HeLa cells; [5]): 0.04

COc1ccc(Nc2nccc(-c3ccc(NC(=O)c4cc5cc(F)ccc5[nH]4)cc3)n2)cc1 [GSK1229496A]
%GFP+ rep 1 (intracellular MRSA; [6]): 23.7% | %GFP+ rep 2 (intracellular MRSA; [6]): 24.4% | %GFP+ rep 3 (intracellular MRSA; [6]): 20.6% | effect (intracellular MRSA; Yes/No call from z-scoreMRSA+): No | hit (intracellular MRSA; [2]): No | z-scoreMRSA+ mean (intracellular MRSA; [3]): -0.14 | z-scoreMRSA+ rep 1 (intracellular MRSA; [3]): -0.37 | z-scoreMRSA+ rep 2 (intracellular MRSA; [3]): 0.43 | z-scoreMRSA+ rep 3 (intracellular MRSA; [3]): -0.48 | cell count rep 1 (HeLa cells; [7]): 4195 | cell count rep 2 (HeLa cells; [7]): 3679 | cell count rep 3 (HeLa cells; [7]): 5039 | cell death (HeLa cells; Yes/No call from z-scoreHeLa): No | z-scoreHeLa mean (HeLa cells; [5]): -0.24 | z-scoreHeLa rep 1 (HeLa cells; [5]): -0.11 | z-scoreHeLa rep 2 (HeLa cells; [5]): -0.48 | z-scoreHeLa rep 3 (HeLa cells; [5]): -0.13

COc1ccc(Nc2nccc(N3CCC(NC(=O)C(C)c4ccc(Cl)cc4)CC3)n2)cc1 (stereo not shown) [GSK1379812A]
%GFP+ rep 1 (intracellular MRSA; [6]): 20.9% | %GFP+ rep 2 (intracellular MRSA; [6]): 22.5% | %GFP+ rep 3 (intracellular MRSA; [6]): 23.9% | z-scoreMRSA+ mean (intracellular MRSA; [8]): 0.71 | z-scoreMRSA+ rep 1 (intracellular MRSA; [8]): 0.57 | z-scoreMRSA+ rep 2 (intracellular MRSA; [8]): 0.84 | z-scoreMRSA+ rep 3 (intracellular MRSA; [8]): 0.73 | effect (intracellular MRSA; [9]): No | hit (intracellular MRSA; [10]): No | effect (intracellular MRSA; [11]): No | z-scoreMRSA+ mean (intracellular MRSA; PKIS compound screen): 0.50 | z-scoreMRSA+ rep 1 (intracellular MRSA; PKIS compound screen): 0.81 | z-scoreMRSA+ rep 2 (intracellular MRSA; PKIS compound screen): 0.11 | z-scoreMRSA+ rep 3 (intracellular MRSA; PKIS compound screen): 0.60 | %GFP+ rep 1 (intracellular MRSA; [1]): 31.2% | %GFP+ rep 2 (intracellular MRSA; [1]): 26.6% | %GFP+ rep 3 (intracellular MRSA; [1]): 30.5% | cell count rep 1 (HeLa cells; [7]): 31442 | cell count rep 2 (HeLa cells; [7]): 27526 | cell count rep 3 (HeLa cells; [7]): 20779 | z-scoreHeLa mean (HeLa cells; [12]): 0.32 | z-scoreHeLa rep 1 (HeLa cells; [12]): 0.21 | z-scoreHeLa rep 2 (HeLa cells; [12]): 0.39 | z-scoreHeLa rep 3 (HeLa cells; [12]): 0.36 | cell death (HeLa cells; [9]): No | cell death (HeLa cells; [13]): No | z-scoreHeLa mean (HeLa cells; PKIS compound screen): 0.45 | z-scoreHeLa rep 1 (HeLa cells; PKIS compound screen): 0.54 | z-scoreHeLa rep 2 (HeLa cells; PKIS compound screen): 0.66 | z-scoreHeLa rep 3 (HeLa cells; PKIS compound screen): 0.15 | cell count rep 1 (HeLa cells; [4]): 6940 | cell count rep 2 (HeLa cells; [4]): 7004 | cell count rep 3 (HeLa cells; [4]): 5839

Oc1ccc2ncnc(Nc3ccc(OCc4ccccc4)cc3)c2c1 [GI262866A]
%GFP+ rep 1 (intracellular MRSA; [1]): 22.5% | %GFP+ rep 2 (intracellular MRSA; [1]): 22.3% | %GFP+ rep 3 (intracellular MRSA; [1]): 21.5% | effect (intracellular MRSA; Yes/No call from z-scoreMRSA+): No | hit (intracellular MRSA; [2]): No | z-scoreMRSA+ mean (intracellular MRSA; [3]): -0.31 | z-scoreMRSA+ rep 1 (intracellular MRSA; [3]): -0.65 | z-scoreMRSA+ rep 2 (intracellular MRSA; [3]): -0.0758 | z-scoreMRSA+ rep 3 (intracellular MRSA; [3]): -0.21 | cell count rep 1 (HeLa cells; [4]): 5744 | cell count rep 2 (HeLa cells; [4]): 4904 | cell count rep 3 (HeLa cells; [4]): 6919 | cell death (HeLa cells; Yes/No call from z-scoreHeLa): No | z-scoreHeLa mean (HeLa cells; [5]): 0.84 | z-scoreHeLa rep 1 (HeLa cells; [5]): 1.00 | z-scoreHeLa rep 2 (HeLa cells; [5]): 0.46 | z-scoreHeLa rep 3 (HeLa cells; [5]): 1.06

CCOc1ccc2c(-c3ccnc(Nc4cccc(C(F)(F)F)c4)n3)cnn2n1 [GW811761X]
%GFP+ rep 1 (intracellular MRSA; [6]): 16.8% | %GFP+ rep 2 (intracellular MRSA; [6]): 16.8% | %GFP+ rep 3 (intracellular MRSA; [6]): 18.1% | z-scoreMRSA+ mean (intracellular MRSA; [8]): -0.46 | z-scoreMRSA+ rep 1 (intracellular MRSA; [8]): -0.34 | z-scoreMRSA+ rep 2 (intracellular MRSA; [8]): -0.52 | z-scoreMRSA+ rep 3 (intracellular MRSA; [8]): -0.51 | hit (intracellular MRSA; [10]): No | effect (intracellular MRSA; [11]): No | cell count rep 1 (HeLa cells; [7]): 25545 | cell count rep 2 (HeLa cells; [7]): 40447 | cell count rep 3 (HeLa cells; [7]): 52915 | z-scoreHeLa mean (HeLa cells; [12]): 1.28 | z-scoreHeLa rep 1 (HeLa cells; [12]): 0.82 | z-scoreHeLa rep 2 (HeLa cells; [12]): 1.06 | z-scoreHeLa rep 3 (HeLa cells; [12]): 1.97 | cell death (HeLa cells; [13]): No

O=C1Nc2ccc(C(=O)c3ccco3)cc2C1=Cc1cc(Cl)c(O)c(Cl)c1 [GW406108X]
%GFP+ rep 1 (intracellular MRSA; [6]): 19.1% | %GFP+ rep 2 (intracellular MRSA; [6]): 21.6% | %GFP+ rep 3 (intracellular MRSA; [6]): 22.3% | z-scoreMRSA+ mean (intracellular MRSA; [8]): 0.69 | z-scoreMRSA+ rep 1 (intracellular MRSA; [8]): 0.39 | z-scoreMRSA+ rep 2 (intracellular MRSA; [8]): 0.93 | z-scoreMRSA+ rep 3 (intracellular MRSA; [8]): 0.76 | hit (intracellular MRSA; [10]): No | effect (intracellular MRSA; [11]): No | cell count rep 1 (HeLa cells; [7]): 28408 | cell count rep 2 (HeLa cells; [7]): 39603 | cell count rep 3 (HeLa cells; [7]): 51964 | z-scoreHeLa mean (HeLa cells; [12]): 1.33 | z-scoreHeLa rep 1 (HeLa cells; [12]): 1.26 | z-scoreHeLa rep 2 (HeLa cells; [12]): 0.90 | z-scoreHeLa rep 3 (HeLa cells; [12]): 1.82 | cell death (HeLa cells; [13]): No
